In US20240074473A1, “METHOD FOR INDUCING HYPERTROPHIC MUSCLE FIBERS FOR INDUSTRIAL MEAT PRODUCTION” (Yeda Research and Development Co. Ltd., priority 2021, published 2024):
Where two headings read alike, the source gives them in different places.

Assays:
[1] = test system: primary chicken myoblasts; experiment: Fusion index of primary chicken myoblasts (MyHC immunostaining); type: cell-based; settings: primary chicken myoblasts; for Fusion index in combination with ERK inhibitor vs ERK inhibitor alone: proliferation media; for Fusion: 48 hours post treatment
Method: Chicken primary derived myoblasts were used as a model to evaluate the efficiency of SCH772984 as the ERKi, compared to conventional differentiation medium (DM) for the purpose of producing muscle (meat) in tissue culture conditions. Chicken myoblasts were isolated from chicken embryos and expanded in proliferation medium. When sufficient cell numbers were acquired, cells were seeded on tissue culture plates and allowed to adhere for 24 hours. Then medium was changed to either PM supplemented with ERKi or DM. At 24-hours post treatment, the cells that received ERKi were replenished with fresh PM (without the addition of more ERKi), and DM treated cells were replenished with fresh DM. Media was replaced daily over a period of 72 hours.
Evaluation of muscle fiber formation was achieved by fixing the cells and staining for expression of Myosin Heavy Chain (FIG. 9A). […] Yet, treatment with conventional DM only began to form fibers beginning at 72-hours post treatment. A fusion index was quantified at 72 hours post treatment (FIG. 9B), in which the percentage of total nuclei present in a myotube (MyHC positive cell with 2 or more nuclei).
Primary chicken myoblast isolation and treatment: chicken myoblasts were isolated from broiler chicken embryos at day 18 from breast and leg muscles by using Trypsin B. Following tissue dissociation, the cell suspension was grown for 3-4 days on 10% Matrigel coated plates. At the first passage, the cells were lifted and pre-plated twice for 30 minutes to enrich for myoblasts and reduce the number of fibroblasts. Then cells were seeded at 8,000/well of optical-96 well plates in proliferation medium. 24 hours after plating, media was aspirated and replaced with the indicated treatment conditions in proliferation media or differentiation media (as indicated). After 24 hours with treatment, the media was aspirated and all wells were replenished with fresh proliferation media or differentiation media without any treatment. This was repeated daily. Cells were fixed at 48 hours after treatment. Compounds were purchased from Cayman Chemicals.
Immunofluorescent staining: Cells were fixed with ice cold 4% PFA in PBS for 10 minutes, permeabilized with 0.5% Triton X-100 in PBS for 6 minutes, and blocked in PBS with 0.025% tween, 10% normal horse serum and 10% normal goat serum for 1 hour at room temperature. Primary antibody incubation was done in blocking buffer overnight at 4 degrees, with the following antibodies: Myosin Heavy Chain (MyHC, MF20, DSHB hybridoma supernatant 1:10, alpha-actinin (SIGMA A7811). Cells were washed 3 times in PBS with 0.025% tween and then incubated with appropriate secondary antibodies in PBS 1 hour. Nuclei were labeled with DAPI (SIGMA D9542, 5 ug/ml). All fusion indexes and imaging analysis were performed on at least 1000 per technical repeat.

[2] = Maximum estimated dietary exposure to media ingredients per 100 g serving; settings: assumption of complete transfer of media components to the finished product on a wt/wt basis
[3] = Risk categorization of cell culture media ingredients
From the text: Category 1: These cell culture media components are food ingredients/additives that are GRAS or permitted by federal regulation without limitation on use. Exemplary compounds in this category include innocuous ingredients such as sugars, pH buffers, water soluble vitamins, and common antioxidants such as tocopherols.
Category 2: These cell culture media components are common dietary nutrients and are anticipated to have GRAS status for food use or be permitted by regulation for addition to food. Examples of such compounds include most of the inorganic salts and macronutrients that are present within the cell culture media. […] Majority of nutrients present within the poultry cell-based meat may be readily measured using common validated methods for food composition testing. Batch analyses of multiple lots of the finished product may be obtained to validate the above assumptions. In some instances, consideration of established safe levels (e.g., ADI, UL) derived from a relevant authoritative body (e.g., U.S. FDA, EFSA, JECFA, FSANZ, U.S. EPA) may be leveraged to support safety. If comparisons of anticipated dietary intakes relative to an authoritative reference intake value is used, consideration of additive intakes from all dietary sources may be considered. In the absence of an authoritative reference intake value, published NOAELs from animal toxicology studies may be used to evaluate safety using standard scientific procedures for food safety evaluation. A margin of exposure (MoE) of 100-fold or greater between the NOAEL and estimated dietary intakes from food exposures is typically considered adequate to support safety. in situations where the MoE is <100-fold, additional measures for further reduction of the media component may be necessary, or further characterization of intraspecies/interspecies differences in metabolism may be necessary. These situations also require careful consideration of the regulatory status on a case-by basis (e.g., premarket approval as a food additive or GRAS evaluation required).
For example, situations where the compound is not detectable in finished product or is present at equivalent levels in comparator foods, compounds that are thermo-labile and will be digested during cooking, and/or compounds that are expected to be digested to innocuous compounds following ingestion. Examples of compounds meeting the aforementioned conditions would include recombinant growth factors and serum components. For Category 3 substances a final consideration in the safety assessment process may involve hazard characterization of the potential for a substance to produce toxic biological effects outside of the endpoints measured in a sub-chronic rat toxicity study. Substances with biological activity may require additional hazard characterization related to reproductive and developmental toxicity, or immunotoxicity. Considerations for allergenicity, biological effects in humans (e.g., effects on blood pressure), and synergistic effects with other media components also may be evaluated. […] Examples of category 3 components include recombinant proteins and animal serum.

[4] = SCH772984 1 uM plus 9-cis RA 200 nM, AM80 200 nM, AM580 100 nM, CH55 200 nM, TTNPB 200 nM, Fenretinide 200 nM, 48 hours
[5] = SCH772984 1 uM plus Caffeine 2 mM or Suramin 10 μM, 48 hours
[6] = cell culture media ingredient used during meat production

CC1=C(/C=C/C(C)=C\C=C\C(C)=C\C(=O)O)C(C)(C)CCC1 [9-cis retinoic acid]
Fusion index in combination with ERK inhibitor vs ERK inhibitor alone [1, 4]: significantly increased the fusion index

CC1(C)CCC(C)(C)c2cc(NC(=O)c3ccc(C(=O)O)cc3)ccc21 [AM80]
Fusion index in combination with ERK inhibitor vs ERK inhibitor alone [1, 4]: significantly increased the fusion index

CC1(C)CCC(C)(C)c2cc(C(=O)Nc3ccc(C(=O)O)cc3)ccc21 [AM580]
Fusion index in combination with ERK inhibitor vs ERK inhibitor alone [1, 4]: significantly increased the fusion index

O=C1O[C@H]([C@@H](O)CO)C(O)=C1O [ASCORBIC ACID]
Maximum Estimated Exposure per 100 g serving [2]: 2000 mg
Risk Assessment Category [3]: 1

CC(C)(C)c1cc(C(=O)/C=C/c2ccc(C(=O)O)cc2)cc(C(C)(C)C)c1 [CH55]
Fusion index in combination with ERK inhibitor vs ERK inhibitor alone [1, 4]: significantly increased the fusion index

C[N+](C)(C)CCO.[Cl-] [CHOLINE CHLORIDE]
Maximum Estimated Exposure per 100 g serving [2]: 52 mg
Risk Assessment Category [3]: 1

Cn1c(=O)c2c(ncn2C)n(C)c1=O [Caffeine]
Fusion index in combination with ERK inhibitor vs ERK inhibitor alone [1, 5]: significantly increased the fusion index

O=C(O)CCCC[C@@H]1SC[C@@H]2NC(=O)N[C@@H]21 [D-BIOTIN]
Maximum Estimated Exposure per 100 g serving [2]: 4 mg
Risk Assessment Category [3]: 1

O=C[C@H](O)[C@@H](O)[C@H](O)[C@H](O)CO [D-GLUCOSE]
Risk Assessment Category [3]: 1

Nc1nc2ncc(CNc3ccc(C(=O)N[C@@H](CCC(=O)O)C(=O)O)cc3)nc2c(=O)[nH]1 [FOLIC ACID]
Maximum Estimated Exposure per 100 g serving [2]: 60 mg
Risk Assessment Category [3]: 1

CC1=C(/C=C/C(C)=C/C=C/C(C)=C/C(=O)Nc2ccc(O)cc2)C(C)(C)CCC1 [Fenretinide]
Fusion index in combination with ERK inhibitor vs ERK inhibitor alone [1, 4]: significantly increased the fusion index

C[C@H](N)C(=O)O [L-ALANINE]
Risk Assessment Category [3]: 2

NC(=O)C[C@H](N)C(=O)O.O [L-ASPARAGINE-H20]
Risk Assessment Category [3]: 2

Cl.N[C@@H](CS)C(=O)O.O [L-CYSTEINE HCL H20]
Risk Assessment Category [3, 6]: 2

Cl.Cl.N[C@@H](CSSC[C@H](N)C(=O)O)C(=O)O [L-CYSTINE 2HCL]
Risk Assessment Category [3]: 2

N[C@@H](CCC(=O)N[C@@H](CS)C(=O)NCC(=O)O)C(=O)O [L-GLUTATHIONE]
Maximum Estimated Exposure per 100 g serving [2]: 36 mg
Risk Assessment Category [3]: 2

Cl.N[C@@H](Cc1cnc[nH]1)C(=O)O.O [L-HISTIDINE-HCL-H20]
Risk Assessment Category [3, 6]: 2

CC[C@H](C)[C@H](N)C(=O)O [L-ISOLEUCINE]
Risk Assessment Category [3]: 2

Cl.NCCCC[C@H](N)C(=O)O [L-LYSINE-HCL]
Risk Assessment Category [3, 6]: 2

CSCC[C@H](N)C(=O)O [L-METHIONINE]
Risk Assessment Category [3]: 2

N[C@@H](Cc1ccccc1)C(=O)O [L-PHENYLALANINE]
Risk Assessment Category [3, 6]: 2

N[C@@H](CO)C(=O)O [L-SERINE]
Risk Assessment Category [3]: 2

C[C@@H](O)[C@H](N)C(=O)O [L-THREONINE]
Risk Assessment Category [3]: 2

N[C@@H](Cc1c[nH]c2ccccc12)C(=O)O [L-TRYPTOPHAN]
Risk Assessment Category [3]: 2

N[C@@H](Cc1ccc([O-])cc1)C(=O)[O-].O.O.[Na+].[Na+] [L-TYROSINE-2NA-2H20]
Risk Assessment Category [3, 6]: 2

CC(C)[C@H](N)C(=O)O [L-VALINE]
Risk Assessment Category [3]: 2

O[C@H]1[C@H](O)[C@@H](O)[C@H](O)[C@@H](O)[C@H]1O [MYO-INOSITOL]
Maximum Estimated Exposure per 100 g serving [2]: 430 mg
Risk Assessment Category [3]: 1

Cc1ncc(CO)c(C=O)c1O.Cl [PYRIDOXAL-HCL]
Risk Assessment Category [3]: 1

Cc1ncc(CO)c(CO)c1O.Cl [PYRIDOXINE-HCL]
Maximum Estimated Exposure per 100 g serving [2]: 25 mg
Risk Assessment Category [3, 6]: 1

O.O.O.O.O.O.O.O.O.O=[Si]([O-])[O-].[Na+].[Na+] [SODIUM METASILICATE-9H2O]
Maximum Estimated Exposure per 100 g serving [2]: 1.6 mg
Risk Assessment Category [3]: 1

O.O=P([O-])(O)O.[Na+] [SODIUM PHOSPHATE MONOBASIC H20]
Maximum Estimated Exposure per 100 g serving [2]: 1500 mg
Risk Assessment Category [3, 6]: 1

Cc1ccc(C(=O)Nc2ccc(S(=O)(=O)O)c3cc(S(=O)(=O)O)cc(S(=O)(=O)O)c23)cc1NC(=O)c1cccc(NC(=O)Nc2cccc(C(=O)Nc3cc(C(=O)Nc4ccc(S(=O)(=O)O)c5cc(S(=O)(=O)O)cc(S(=O)(=O)O)c45)ccc3C)c2)c1 [Suramin]
Fusion index in combination with ERK inhibitor vs ERK inhibitor alone [1, 5]: significantly increased the fusion index

C/C(=C\c1ccc(C(=O)O)cc1)c1ccc2c(c1)C(C)(C)CCC2(C)C [TTNPB]
Fusion index in combination with ERK inhibitor vs ERK inhibitor alone [1, 4]: significantly increased the fusion index

N#CC(=C(/N)Sc1ccccc1N)/C(C#N)=C(\N)Sc1ccccc1N [U0126]
Fusion ([1]; Differentiation media, 1 uM): 29%
Fusion ([1]; Differentiation media, 10 uM): 47%
Fusion ([1]; Proliferation media, 1 uM): 16%
Fusion ([1]; Proliferation media, 10 uM): 7%

CNc1ccc2oc(C[C@H]3O[C@@]4(CC[C@H]3C)O[C@H]([C@H](C)C(=O)c3ccc[nH]3)[C@H](C)C[C@H]4C)nc2c1C(=O)O [calcimycin]
Fusion index ([1]; proliferation medium, ionophore 1 uM plus ERKi 1 uM, 48 hours): 94%

BOVINE SERUM ALBUMIN: animal component of cell culture media
Risk Assessment Category [3]: 3

FGF2 (FIBROBLAST GROWTH FACTOR-BASIC): growth factor of cell culture media
Risk Assessment Category [3]: 3

IGF-1 (INSULIN-LIKE GROWTH FACTOR 1): growth factor of cell culture media
Risk Assessment Category [3]: 3

PDGF-BB (PLATELET DERIVED GROWTH FACTOR-BB): growth factor of cell culture media
Risk Assessment Category [3]: 3
